TGI data for 11 compounds are collected here from PubChem BioAssay (NCI).

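These data come from cells grown in 96-well plates and exposed to compound for 48 hours at five concentrations. TGI: concentration producing complete growth inhibition.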

Assay in all cases: NCI-60 cell line screen, 48 h
The test system of assay [1] is K-562 leukemia.
Assay [2] concerns NCI-H226 lung.
Assay [3] relates to DU-145 prostate.
Assay [4] deals with SN12C renal.
Assay [5] has as its system A498 renal.
The test system of assay [6] is OVCAR-4 ovarian.
For assay [7], the system named is SK-MEL-5 melanoma.
Assay [8] relates to TK-10 renal.
Assay [9] concerns HCC-2998 colon.
For assay [10], the system named is SF-295 CNS.
In assay [11] the test system is HOP-62 NSCLC.
The test system of assay [12] is HOP-92 NSCLC.
Assay [13] relates to SNB-19 CNS.
For assay [14], the system named is NCI/ADR-RES ovarian.
In assay [15] the test system is PC-3 prostate.
Assay [16] has as its system UACC-62 melanoma.
In assay [17] the test system is SNB-75 CNS.

Regarding `CCN(CC)C1C(=O)NC1C#Cc1ccccc1` (configuration not stated), the TGI in assay [1], in assay [2], in [3], in assay [4], in assay [5] and in assay [6] was above 100 µM throughout. The TGI in assay [7] was above 100 µM; in assay [8] it was above 100 µM; in [9], above 100 µM; in assay [10], above 100 µM; in assay [11] it was above 100 µM; in [12], 92.1 µM. Moreover, the TGI in [13], in [14], in [15], in assay [16] and in assay [17] was above 100 µM each time.
On to `CC(C)Oc1cccc(N2C(=NCCc3c[nH]c4ccccc34)Nc3ccncc3S2(=O)=O)c1`, for which the TGI in [1], in [2], in assay [3], in [4], in assay [5] and in assay [6] was above 100 µM each time. The TGI in [7], in [8], in assay [9], in assay [10], in [11] and in assay [12] was above 100 µM each time. Moreover, the TGI in assay [13], in [14], in [15], in assay [16] and in assay [17] was above 100 µM in each case.
As to `CCN(CCCl)c1cc(CN(C)C)cc(NC(=O)C23CCC(C(=O)Nc4cc(CN(C)C)cc(N(CC)CCCl)c4)(CC2)CC3)c1`, the TGI in assay [1] amounted to 4.73 µM; in assay [2], 4 µM; in assay [3] it was 11.9 µM; in [4], 2.39 µM; in assay [5] it was 20.2 µM; in assay [6], 5.12 µM. Moreover, the TGI came to 3.33 µM in [7]; 21.2 µM in assay [8]; 2.73 µM in assay [9]; 11.9 µM in assay [10]; 2.76 µM in [11]; 5.06 µM in assay [12]. Also, the TGI in assay [13] is 3.3 µM; in assay [14] it was above 100 µM; in assay [15], 1.95 µM; in assay [16], 4.18 µM; in [17] it was 8.33 µM.
`CCN(CC)c1ccc(/C=C/C(=O)c2cc(C(C)(C)C)c(O)c(C(C)(C)C)c2)cc1`: the TGI was above 100 µM in assay [1]; 99.1 µM in assay [2]; above 100 µM in [3]; above 84 µM in [4]; above 100 µM in assay [5]; above 100 µM in [6]. Moreover, the TGI is 70.9 µM in assay [7]; 97.6 µM in [8]; 37 µM in [9]; 7.98 µM in assay [10]; above 100 µM in assay [11]; above 100 µM in assay [12]. In addition, the TGI was above 100 µM in [13]; 26.9 µM in assay [14]; above 100 µM in [15]; above 100 µM in assay [16]; above 100 µM in [17].
For `CCCCCCCCCCCCCCCCCCNc1nc(=O)n(C2CC(O)C(COP(=O)(O)OCC3OC(n4ccc(N)nc4=O)C(O)C3O)O2)cc1F` (configuration not stated), the TGI in [1], in assay [2], in assay [3], in assay [4], in assay [5] and in [6] was above 100 µM throughout. In addition, the TGI in assay [7], in assay [8], in [9], in assay [10], in [11] and in assay [12] was above 100 µM throughout. Besides, the TGI in assay [13], in assay [14], in [15], in [16] and in assay [17] was above 100 µM throughout.
As to `O=c1[nH]c(=O)n(C2CC(O)C(CO)O2)c2nc3ccc4cc5ccccc5cc4c3nc12` (configuration not stated), the TGI in [1], in [2], in assay [3], in [4], in assay [5] and in assay [6] was above 100 µM in each case. In addition, the TGI in assay [7], in assay [8], in [9], in assay [10], in assay [11] and in [12] was above 100 µM throughout. In addition, the TGI in assay [13], in assay [14], in [15], in [16] and in assay [17] was above 100 µM each time.
On to `ON[C@H]1C[C@@H](n2cnc3c(NC4CC4)ncnc32)[C@H](O)[C@@H]1O`, for which the TGI in [1], in [2], in assay [3], in assay [4], in [5] and in assay [6] was above 100 µM each time. In addition, the TGI in assay [7], in assay [8], in assay [9], in assay [10], in [11] and in [12] was above 100 µM in each case. For the same compound, the TGI in assay [13], in assay [14], in assay [15], in [16] and in assay [17] was above 100 µM each time.
In the case of `C[N+](C)(C)CC(=O)N/N=C(\C(=O)NC1=C(Cl)C(=O)c2ccccc2C1=O)C(C#N)c1nc(-c2ccc([N+](=O)[O-])cc2)cs1` (configuration not stated), the TGI in [1] is 61.1 µM; in assay [2], 38.6 µM; in assay [3], 14.1 µM; in assay [4], 28.2 µM; in [5], 33.3 µM; in assay [6], 23.3 µM. Moreover, the TGI came to 2.7 µM in assay [7]; 74.6 µM in assay [8]; 30.5 µM in assay [9]; 18.9 µM in assay [10]; 34.4 µM in [11]; 29 µM in assay [12]. Further, the TGI in assay [13] is 39.8 µM; in assay [14] it was above 57.5 µM; in assay [15], 56.8 µM; in assay [16], 9.27 µM; in assay [17], 19.9 µM.
For the compound `CC1(c2ccc(Cl)s2)CC(c2ccc(Cl)s2)=C(C#N)C(=C(C#N)C#N)N1` (configuration not stated), the TGI is above 100 µM in assay [1]; above 100 µM in assay [2]; 30.6 µM in [3]; 45.7 µM in assay [4]; 37.8 µM in assay [5]; 33.2 µM in assay [6]. Further, the TGI stood at 29.5 µM in assay [7]; 38.1 µM in [8]; 34.5 µM in assay [9]; 29.8 µM in [10]; 36 µM in assay [11]; 38.8 µM in assay [12]. Also, the TGI in assay [13] turned out to be 44.2 µM; in assay [14] it was 38.8 µM; in [15] it was 33.5 µM; in [16] it was 30.7 µM; in assay [17] it was 38.6 µM.
In the case of `COc1ccc(N=NC(=Nc2ccc(Cl)cc2)c2ccc(N(CCC#N)CCC#N)cc2)cc1`, the TGI in [1], in assay [2], in assay [3], in assay [4], in [5] and in assay [6] was above 100 µM throughout. Moreover, the TGI in [7] was above 100 µM; in assay [8] it was above 100 µM; in [9], above 100 µM; in assay [10] it was above 100 µM; in assay [11], above 100 µM; in assay [12], 93 µM. Moreover, the TGI in assay [13] is above 100 µM; in [14], above 100 µM; in assay [15], above 100 µM; in assay [16], 54.1 µM; in [17], above 100 µM.
Turning to `Cc1ccnc2[nH]c(-c3ccc(F)cc3)cc(=O)c12`, the TGI in [1] was above 100 µM; in [2], above 100 µM; in assay [3], above 100 µM; in [4], above 100 µM; in assay [5], 97.9 µM; in assay [6], above 100 µM. Also, the TGI in [7], in [8], in assay [9], in assay [10], in assay [11] and in assay [12] was above 100 µM in each case. Also, the TGI in assay [13], in assay [14], in assay [15], in assay [16] and in assay [17] was above 100 µM in each case.
